Test results from publication PMC12446476 (Nature Communications, 2025).
Like-named read-outs stand apart in the source and are kept apart here.

System: N. gonorrhoeae
Experiment: MIC determination, agar dilution (CLSI)
Format: cell-based, Neisseria gonorrhoeae
Details: for MIC: Neisseria gonorrhoeae
Outline: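 For N. gonorrhoeae, WHO 2024 reference strains served as quality control, only whole doubling-dilution MICs were reported, and isolates were classified by EUCAST v14.0 breakpoints or ECOFF. Time-kill assays followed CLSI in Columbia broth with 1% IsoVitaleX, and viable counts came from plating serial dilutions on GC agar with IsoVitaleX.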

Cc1c(CN(C)C(=O)/C=C/c2cnc3c(c2)N[C@H](C)[C@H](O)C(=O)N3)oc2ccccc12 [Debio 1453]
0.03 to 0.125 µg/mL: MIC range (2024 WHO N. gonorrhoeae reference strains)
0.008 µg/mL: MIC (clinical N. gonorrhoeae isolate 39, Sweden 2023, read-out: Minimum inhibitory concentration) | MIC (clinical N. gonorrhoeae isolate 56, Sweden 2023, read-out: Minimum inhibitory concentration) | MIC (clinical N. gonorrhoeae isolate 64, Sweden 2023, read-out: Minimum inhibitory concentration)
0.064 µg/mL: MIC (clinical N. gonorrhoeae isolate 1, Sweden 2023, read-out: Minimum inhibitory concentration) | MIC (clinical N. gonorrhoeae isolate 3, Sweden 2023, read-out: Minimum inhibitory concentration) | MIC (clinical N. gonorrhoeae isolate 5, Sweden 2023, read-out: Minimum inhibitory concentration) | MIC (clinical N. gonorrhoeae isolate 7, Sweden 2023, read-out: Minimum inhibitory concentration) | MIC (clinical N. gonorrhoeae isolate 8, Sweden 2023, read-out: Minimum inhibitory concentration) | MIC (clinical N. gonorrhoeae isolate 9, Sweden 2023, read-out: Minimum inhibitory concentration) | MIC (clinical N. gonorrhoeae isolate 10, Sweden 2023, read-out: Minimum inhibitory concentration) | MIC (clinical N. gonorrhoeae isolate 11, Sweden 2023, read-out: Minimum inhibitory concentration) | MIC (clinical N. gonorrhoeae isolate 13, Sweden 2023, read-out: Minimum inhibitory concentration) | MIC (clinical N. gonorrhoeae isolate 15, Sweden 2023, read-out: Minimum inhibitory concentration) | MIC (clinical N. gonorrhoeae isolate 16, Sweden 2023, read-out: Minimum inhibitory concentration) | MIC (clinical N. gonorrhoeae isolate 17, Sweden 2023, read-out: Minimum inhibitory concentration) | MIC (clinical N. gonorrhoeae isolate 18, Sweden 2023, read-out: Minimum inhibitory concentration) | MIC (clinical N. gonorrhoeae isolate 19, Sweden 2023, read-out: Minimum inhibitory concentration) | MIC (clinical N. gonorrhoeae isolate 20, Sweden 2023, read-out: Minimum inhibitory concentration) | MIC (clinical N. gonorrhoeae isolate 21, Sweden 2023, read-out: Minimum inhibitory concentration) | MIC (clinical N. gonorrhoeae isolate 23, Sweden 2023, read-out: Minimum inhibitory concentration) | MIC (clinical N. gonorrhoeae isolate 25, Sweden 2023, read-out: Minimum inhibitory concentration) | MIC (clinical N. gonorrhoeae isolate 27, Sweden 2023, read-out: Minimum inhibitory concentration) | MIC (clinical N. gonorrhoeae isolate 28, Sweden 2023, read-out: Minimum inhibitory concentration) | MIC (clinical N. gonorrhoeae isolate 29, Sweden 2023, read-out: Minimum inhibitory concentration) | MIC (clinical N. gonorrhoeae isolate 31, Sweden 2023, read-out: Minimum inhibitory concentration) | MIC (clinical N. gonorrhoeae isolate 33, Sweden 2023, read-out: Minimum inhibitory concentration) | MIC (clinical N. gonorrhoeae isolate 34, Sweden 2023, read-out: Minimum inhibitory concentration) | MIC (clinical N. gonorrhoeae isolate 37, Sweden 2023, read-out: Minimum inhibitory concentration) | MIC (clinical N. gonorrhoeae isolate 38, Sweden 2023, read-out: Minimum inhibitory concentration) | MIC (clinical N. gonorrhoeae isolate 40, Sweden 2023, read-out: Minimum inhibitory concentration) | MIC (clinical N. gonorrhoeae isolate 43, Sweden 2023, read-out: Minimum inhibitory concentration) | MIC (clinical N. gonorrhoeae isolate 47, Sweden 2023, read-out: Minimum inhibitory concentration) | MIC (clinical N. gonorrhoeae isolate 50, Sweden 2023, read-out: Minimum inhibitory concentration) | MIC (clinical N. gonorrhoeae isolate 53, Sweden 2023, read-out: Minimum inhibitory concentration) | MIC (clinical N. gonorrhoeae isolate 54, Sweden 2023, read-out: Minimum inhibitory concentration) | MIC (clinical N. gonorrhoeae isolate 55, Sweden 2023, read-out: Minimum inhibitory concentration) | MIC (clinical N. gonorrhoeae isolate 58, Sweden 2023, read-out: Minimum inhibitory concentration) | MIC (clinical N. gonorrhoeae isolate 59, Sweden 2023, read-out: Minimum inhibitory concentration) | MIC (clinical N. gonorrhoeae isolate 60, Sweden 2023, read-out: Minimum inhibitory concentration) | MIC (clinical N. gonorrhoeae isolate 61, Sweden 2023, read-out: Minimum inhibitory concentration) | MIC (clinical N. gonorrhoeae isolate 65, Sweden 2023, read-out: Minimum inhibitory concentration)
4 fold: increase in MIC (6804 clones with FabI L257F vs parent)
0.016 µg/mL: MIC (ATCC700825, read-out: MIC relevant for mutant selection assay, ATCC 700825) | MIC (clinical N. gonorrhoeae isolate 32, Sweden 2023, read-out: Minimum inhibitory concentration) | MIC (clinical N. gonorrhoeae isolate 36, Sweden 2023, read-out: Minimum inhibitory concentration) | MIC (clinical N. gonorrhoeae isolate 48, Sweden 2023, read-out: Minimum inhibitory concentration) | MIC (clinical N. gonorrhoeae isolate 51, Sweden 2023, read-out: Minimum inhibitory concentration) | MIC (clinical N. gonorrhoeae isolate 62, Sweden 2023, read-out: Minimum inhibitory concentration)
0.008 to 0.125 µg/mL: MIC range (100 contemporary clinical N. gonorrhoeae isolates)
0.06 µg/mL: MIC (WHO H, agar dilution, read-out: MIC) | MIC (WHO K, agar dilution, read-out: MIC) | MIC (WHO M, agar dilution, read-out: MIC) | MIC (WHO O, agar dilution, read-out: MIC) | MIC (WHO Q, agar dilution, read-out: MIC) | MIC (WHO R, agar dilution, read-out: MIC) | MIC (WHO S2, agar dilution, read-out: MIC) | MIC (WHO V, agar dilution, read-out: MIC) | MIC (WHO X, agar dilution, read-out: MIC) | MIC (WHO Y, agar dilution, read-out: MIC) | MIC (WHO Z, agar dilution, read-out: MIC)
0.03 µg/mL: MIC (AR Bank0179-15 (AZM-R), mode of multiple measures, read-out: MIC) | MIC (WHO F, agar dilution, read-out: MIC) | MIC (WHO L, agar dilution, read-out: MIC)
0.032 µg/mL: MIC (clinical N. gonorrhoeae isolate 2, Sweden 2023, read-out: Minimum inhibitory concentration) | MIC (clinical N. gonorrhoeae isolate 4, Sweden 2023, read-out: Minimum inhibitory concentration) | MIC (clinical N. gonorrhoeae isolate 6, Sweden 2023, read-out: Minimum inhibitory concentration) | MIC (clinical N. gonorrhoeae isolate 12, Sweden 2023, read-out: Minimum inhibitory concentration) | MIC (clinical N. gonorrhoeae isolate 14, Sweden 2023, read-out: Minimum inhibitory concentration) | MIC (clinical N. gonorrhoeae isolate 26, Sweden 2023, read-out: Minimum inhibitory concentration) | MIC (clinical N. gonorrhoeae isolate 35, Sweden 2023, read-out: Minimum inhibitory concentration) | MIC (clinical N. gonorrhoeae isolate 42, Sweden 2023, read-out: Minimum inhibitory concentration) | MIC (clinical N. gonorrhoeae isolate 44, Sweden 2023, read-out: Minimum inhibitory concentration) | MIC (clinical N. gonorrhoeae isolate 45, Sweden 2023, read-out: Minimum inhibitory concentration) | MIC (clinical N. gonorrhoeae isolate 46, Sweden 2023, read-out: Minimum inhibitory concentration) | MIC (clinical N. gonorrhoeae isolate 49, Sweden 2023, read-out: Minimum inhibitory concentration) | MIC (clinical N. gonorrhoeae isolate 57, Sweden 2023, read-out: Minimum inhibitory concentration) | MIC (clinical N. gonorrhoeae isolate 63, Sweden 2023, read-out: Minimum inhibitory concentration) | MIC (clinical N. gonorrhoeae isolate 66, Sweden 2023, read-out: Minimum inhibitory concentration)
0.125 µg/mL: MIC (AR Bank0181-17 (AZM-R), mode of multiple measures, read-out: MIC) | MIC (WHO P, agar dilution, read-out: MIC) | MIC (WHO U, agar dilution, read-out: MIC) | MIC (WHO X-07 (CIP-R, CRO-R), mode of multiple measures, read-out: MIC) | MIC (clinical N. gonorrhoeae isolate 22, Sweden 2023, read-out: Minimum inhibitory concentration) | MIC (clinical N. gonorrhoeae isolate 24, Sweden 2023, read-out: Minimum inhibitory concentration) | MIC (clinical N. gonorrhoeae isolate 30, Sweden 2023, read-out: Minimum inhibitory concentration) | MIC (clinical N. gonorrhoeae isolate 41, Sweden 2023, read-out: Minimum inhibitory concentration) | MIC (clinical N. gonorrhoeae isolate 52, Sweden 2023, read-out: Minimum inhibitory concentration)
